Data on one compound can be found in patent US20250346550A1, “METHODS OF MODULATING ENDONUCLEASE G USING RESVERATROL AND ITS DERIVATIVES” (THE REGENTS OF THE UNIVERSITY OF COLORADO A BODY CORPORATE, priority 2022, published 2025).

Holding throughout (assay type): in vivo, C. elegans
Data set [1] is described as follows: toxicity observed in animal assays. Particulars: neuronal death and tumor assays, 100 μM. From the text: As described above, Applicant's successfully synthesized a new compound, stabilized cis-resveratrol.
For data set [2], the system named is α-synuclein-induced dopaminergic neuronal death in baIn11 animals. The experiment in a line: α-synuclein-based Parkinson's Disease model, DA neuronal death. Particulars: 100 μM, adult day 2 baIn11 animals vs 0.25% ethanol. From the text: FIG. 8. […] In each experiment, 300 animals were scored to determine the percentage of animals losing at least one dopaminergic neuron in the head. Data are mean±s.e.m. *P<0.05; ***P<0.001, two-sided, unpaired t-test.
FIG. 13. […] In each experiment, 300 animals were scored to determine the percentage of animals losing at least one of the six dopaminergic neurons in the head. Data are mean±s.e.m. ****P<0.001, two-sided, unpaired t-test.
In addition to PME and apoptosis, EndoG was previously shown to play an important role in mediating dopaminergic (DA) neuronal death induced by expression of human α-synuclein, which is widely considered to be a major proponent of Parkinson's disease. However, the mechanism by which EndoG mediates α-synuclein-induced neurodegeneration is unclear. In a C. elegans α-synuclein-based Parkinson's Disease model, co-expression of GFP and human α-synuclein in C. elegans dopaminergic neurons under the control of the promoter of the dat-1 gene, which encodes a dopamine transporter, from an integrated transgene baIn11 (Pdat-1::gfp/Pdat-1::α-synuclein) caused DA neuronal death in 30% of adult baIn11 animals (FIG. 8a). The cps-6(tm3222) mutation blocked DA neuronal death in adult baIn11 animals (FIG. 8a), confirming that CPS-6 is important for α-synuclein-induced DA neuronal death.

Data set [3] has as its system germline tumor in daf-16(mu86); cki-2(ok2105); glp-1(ar202) mutant (ET507). The experiment in a line: germline tumor model (ET507). Particulars: 100 μM, ET507 at 20° C., vs 0.25% ethanol (FIG. 14). As for the experimental part:
FIG. 9. Cis-resveratrol inhibits and trans-resveratrol promotes germline tumor formation. Tumor size and tumor occurring frequency of the daf-16(mu86); cki-2(0k2105); glp-1 (ar202) mutant grown at 20° C. and treated with 1% ethanol (Mock), 200 μM cis-resveratrol (Cis), and 200 μM trans-resveratrol (Trans), respectively, are shown. Tumor assays were performed in triplicate with 100 animals per replicate. a, A five-stage classification was created to measure the tumor size in adult day 5 animals under the Normaski optic. Score 1 denotes the normal gonads seen in wild-type animals. Score 5 denotes enlarged gonads full of mitotic germ cells and without any egg or oocyte. Score 2-4 denote partially enlarged gonads. b, Tumor frequency indicates the percentage of animals with enlarged gonads (score 5). Data from three independent biological replicates are shown as mean±SEM. *P<0.05; **P<0.01; ***P<0.001, two-sided, unpaired t-test.
FIG. 14. stabilized cis-resveratrol inhibits germline tumor formation as well as cis-resveratrol. Tumor occurring frequency of the daf-16 (mu86); cki-2 (0k2105); glp-1 (ar202) mutant (ET507) grown at 20° C. and treated with 0.25% ethanol (Mock), 100 μM cis-resveratrol, and 100 μM Stabilized cis-resveratrol, respectively, are shown. Tumor assays were performed in triplicate with 100 animals per replicate. Data are mean±s.e.m. ****P<0.001, two-sided, unpaired t-test
The present inventors tested whether resveratrol isomers affect tumorigenesis in a C. elegans germline tumor model (ET507), in which three cell growth genes, daf-16, cki-2, and glp-1, are mutated, leading to uncontrolled germ cell proliferation and germline tumor.

For `O=C1CCC(c2ccc(O)cc2)=C1c1cc(O)cc(O)c1` [stabilized cis-resveratrol], in data set [1], the “toxicity in animal assays” value is listed as “No obvious toxicity was observed”. Besides, in data set [2], the “effect on α-synuclein-induced DA neuronal death” value was “comparable activity as cis-resveratrol in strongly suppressing”. The germline tumor formation entry in data set [3] is recorded as “comparable activity as cis-resveratrol in strongly suppressing”.
